The record followed here is patent US11851440B2, “Modulators of eukaryotic initiation factor 2B, compositions and methods” (Denali Therapeutics Inc., priority 2017, dated 2023).

A value given as a limit tells only on which side of the number the result lay.

As usually defined, the IC50 is the concentration that gives 50% inhibition.

The first experiment relates to ISR pathway (ATF4 translation). As to the kind of experiment: ATF4 Nano Luciferase reporter integrated stress response (ISR) assay in H4 ATF4-NLuc cells. The conditions noted are these: Homo sapiens, H4 ATF4-NLuc (clone 17) cells; compound 30 minutes, then 50 um sodium arsenite for 6 hours; luminescence readout.
`O=C(COc1ccc(C(F)(F)F)nc1)NC12CC(n3cnc(C4CC(OC(F)(F)F)C4)c3)(C1)C2` (centres unmarked) [Example 151] displayed an IC50 of 35.5 nM.
`O=C(COc1ccc(Cl)c(F)c1)NC12CC(c3nnc(C4CN(CC(F)(F)F)C4)o3)(C1)C2` [Example 15, 2-(4-chloro-3-fluoro-phenoxy)-N-[1-[5-[1-(2,2,2-trifluoroethyl)azetidin-3-yl]-1,3,4-oxadiazol-2-yl]-3-bicyclo[1.1.1]pentanyl]acetamide]: the IC50 is 17.1 nM.
`O=C(COc1ccc(Cl)c(F)c1)NC12CC(c3nnc([C@H]4C[C@@H](OC(F)(F)F)C4)o3)(C1)C2` [Example 6, 2-(4-chloro-3-fluoro-phenoxy)-N-[1-[5-[cis-3-(trifluoromethoxy)cyclobutyl]-1,3,4-oxadiazol-2-yl]-3-bicyclo[1.1.1]pentanyl]acetamide] gave an IC50 of 2.5 nM.

Staying with this experiment, now noted: Homo sapiens, read-out: Activity (IC50), H4 ATF4-NLuc (clone 17) cells; compound 30 minutes, then 50 um sodium arsenite for 6 hours; luminescence readout.
Take `O=C(COC1CCC1)NC12CC(c3cn(-c4ccc(Cl)cc4)nn3)(C1)C2` [Example 28, N-[1-[1-(4-Chlorophenyl)triazol-4-yl]-3-bicyclo[1.1.1]pentanyl]-2-(cyclobutoxy)acetamide]: the IC50 is under 1000 nM.
On the same count and under the same terms, then `O=C(COc1ccc(C(F)(F)F)nc1)NC12CC(n3cnc(C4CC(OC(F)(F)F)C4)c3)(C1)C2` (centres unmarked) [Example 151], with under 1000 nM; and `O=C(COc1ccc(Cl)c(F)c1)NC12CC(c3nnc(CN4CCC(F)(F)C4)o3)(C1)C2` [Example 125, 2-(4-chloro-3-fluoro-phenoxy)-N-[3-[5-[(3,3-difluoropyrrolidin-1-yl)methyl]-1,3,4-oxadiazol-2-yl]-1-bicyclo[1.1.1]pentanyl]acetamide], with under 1000 nM.
For `O=C(COc1ccc(Cl)cc1)NC12CC(N3CC(C4CCC4)=CC3=O)(C1)C2` [Example 214], the IC50 was under 1000 nM.
With `O=C(COc1ccc(Cl)c(F)c1)NC12CC(C3=NOC(C4CCCC4)C3)(C1)C2` (centres unmarked) [Example 21, 2-(4-chloro-3-fluorophenoxy)-N-(3-(5-cyclopentyl-4,5-dihydroisoxazol-3-yl)bicyclo[1.1.1]pentan-1-yl)acetamide], the IC50 was under 1000 nM.
In the case of `O=C(NC12CC(c3nnc([C@H]4C[C@@H](OC(F)(F)F)C4)o3)(C1)C2)OCc1ccc(Cl)cc1` [Example 110, (4-chlorophenyl)methyl-N-[3-[5-[3-cis-(trifluoromethoxy)cyclobutyl]-1,3,4-oxadiazol-2-yl]-1-bicyclo[1.1.1]pentanyl]carbamate], the IC50 is under 1000 nM.
Turning to `O=C(COc1ccc(Cl)c(F)c1)NC12CC(c3nnc(C4CN(CC(F)(F)F)C4)o3)(C1)C2` [Example 15, 2-(4-chloro-3-fluoro-phenoxy)-N-[1-[5-[1-(2,2,2-trifluoroethyl)azetidin-3-yl]-1,3,4-oxadiazol-2-yl]-3-bicyclo[1.1.1]pentanyl]acetamide], the IC50 is under 1000 nM.
In the case of `O=C(COc1ccc(Cl)c(F)c1)NC12CC(c3nnc(CCOC(F)(F)F)o3)(C1)C2` [Example 55], the IC50 is under 1000 nM.
With `O=C(NC12CC(c3nnc(-c4ccc(Cl)c(F)c4)o3)(C1)C2)[C@H]1CC[C@H](COC(F)(F)F)CC1` [Example 235], the half-maximal inhibitory concentration (IC50) was under 1000 nM.
Regarding `O=C(COc1ccc(Cl)cc1)NC12CC(c3nnn([C@H]4C[C@@H](OC(F)(F)F)C4)n3)(C1)C2` [Example 242], the IC50 was under 1000 nM.
Same read-out and setting: as for `O=C(NC12CC(c3nnc([C@H]4C[C@@H](OC(F)(F)F)C4)o3)(C1)C2)C1CCc2cc(F)ccc2O1` (single isomer, unassigned) [Example 159], the figure is under 1000 nM; as for `O=C(COc1ccc(Cl)c(F)c1)NC12CC(c3nnc([C@H]4C[C@@H](n5nccn5)C4)o3)(C1)C2` [Example 244], under 1000 nM.
Take `O=C(COc1ccc(Cl)cc1)NC12CC(N3C[C@H](C4CC(OC(F)(F)F)C4)OS3(=O)=O)(C1)C2` (some centres unmarked) [Example 266]: the IC50 is under 1000 nM.
Take `O=C(COc1ccc(Cl)cc1)NC12CC(c3nnc(CC(F)(F)F)o3)(C1)C2` [Example 4, 2-(4-chlorophenoxy)-N-[3-[5-(2,2,2-trifluoroethyl)-1,3,4-oxadiazol-2-yl]-1-bicyclo[1.1.1]pentanyl]acetamide]: the IC50 was in the range of 1000 to 10000 nM.
With `O=C(COc1ccc(Cl)c(F)c1)NC12CC(c3ncc(C4CCC4)o3)(C1)C2` [Example 47], the IC50 is under 1000 nM.
Take `O=C(COc1ccc(Cl)c(F)c1)NC12CC(c3cc(C4CCCC4)on3)(C1)C2` [Example 22, 2-(4-chloro-3-fluorophenoxy)-N-(3-(5-cyclopentylisoxazol-3-yl)bicyclo[1.1.1]pentan-1-yl)acetamide]: the IC50 is under 1000 nM.
Consider `Cc1nc(C2CC(OC(F)(F)F)C2)cn1C12CC(NC(=O)CO[C@H]3C[C@@H](OC(F)(F)F)C3)(C1)C2` (stereo partly drawn) [Example 96, N-[3-[2-methyl-4-[3-(trifluoromethoxy)cyclobutyl]imidazol-1-yl]-1-bicyclo[1.1.1]pentanyl]-2-[3-cis-(trifluoromethoxy)cyclobutoxy]acetamide], for which the IC50 was under 1000 nM.
For `O=C(NC12CC(c3nnc([C@H]4C[C@@H](OC(F)(F)F)C4)o3)(C1)C2)c1ncc2ccccc2n1` [Example 191], the IC50 is under 1000 nM.
With `O=C(COc1ccc(F)c(F)c1)NC12CC(n3cnc([C@H]4C[C@H](OC(F)(F)F)C4)c3)(C1)C2` [Example 144], the IC50 is under 1000 nM.
Take `O=C(NC12CC(c3nnc([C@H]4C[C@@H](OC(F)(F)F)C4)o3)(C1)C2)c1cc(C2CC2)on1` [Example 98, 5-cyclopropyl-N-[3-[5-[3-cis-(trifluoromethoxy)cyclobutyl]-1,3,4-oxadiazol-2-yl]-1-bicyclo[1.1.1]pentanyl]isoxazole-3-carboxamide]: the IC50 was in the range of 1000 to 10000 nM.
The same measure, in the same setting: as for `O=C(CO[C@H]1C[C@@H](OC(F)(F)F)C1)NC12CC(n3cc(-c4ccc(Cl)cc4)oc3=O)(C1)C2` [Example 198], the figure is under 1000 nM; as for `O=C(COC1CN(CC(F)(F)F)C1)NC12CC(c3nnc([C@H]4C[C@@H](OC(F)(F)F)C4)o3)(C1)C2` [Example 116, 2-[1-(2,2,2-trifluoroethyl)azetidin-3-yl]oxy-N-[3-[5-[3-cis-(trifluoromethoxy)cyclobutyl]-1,3,4-oxadiazol-2-yl]-1-bicyclo[1.1.1]pentanyl]acetamide], 1000 to 10000 nM; as for `O=C(COc1cccc(OC(F)(F)F)c1)NC12CC(c3nnc([C@H]4C[C@@H](OC(F)(F)F)C4)o3)(C1)C2` [Example 173], under 1000 nM.
As to `O=C(COc1ccc(Cl)c(F)c1)NC12CC(c3nnc([C@H]4C[C@@H](OC(F)(F)F)C4)o3)(C1)C2` [Example 6, 2-(4-chloro-3-fluoro-phenoxy)-N-[1-[5-[cis-3-(trifluoromethoxy)cyclobutyl]-1,3,4-oxadiazol-2-yl]-3-bicyclo[1.1.1]pentanyl]acetamide], the IC50 was under 1000 nM.
As to `CC(C)(c1nnc(C23CC(NC(=O)COc4ccc(Cl)c(F)c4)(C2)C3)o1)C(F)F` [Example 131, 2-(4-chloro-3-fluoro-phenoxy)-N-[3-[5-(2,2-difluoro-1,1-dimethyl-ethyl)-1,3,4-oxadiazol-2-yl]-1-bicyclo[1.1.1]pentanyl]acetamide], the IC50 is over 10000 nM.
On the same count and under the same terms, then `O=C(COc1cccc(Cl)c1)NC12CC(c3nnc([C@H]4C[C@@H](OC(F)(F)F)C4)o3)(C1)C2` [Example 156], with under 1000 nM.
As for `O=C(COc1ccc(Cl)c(F)c1)NC12CC(c3nnc(CC4CCC4)o3)(C1)C2` [Example 38, 2-(4-chloro-3-fluoro-phenoxy)-N-[1-[5-(cyclobutylmethyl)-1,3,4-oxadiazol-2-yl]-3-bicyclo[1.1.1]pentanyl]acetamide], the half-maximal inhibitory concentration (IC50) was under 1000 nM.
Still for that read-out and setting: as for `O=C(CO[C@H]1C[C@@H](OC(F)(F)F)C1)NC12CC(c3cnn(-c4ccc(Cl)cc4)c3)(C1)C2` [Example 263], the figure is under 1000 nM; as for `O=C(NC12CC(c3nnc([C@H]4C[C@@H](OC(F)(F)F)C4)o3)(C1)C2)c1cn2ccc(Cl)cc2n1` [Example 104, 7-chloro-N-[3-[5-[3-cis-(trifluoromethoxy)cyclobutyl]-1,3,4-oxadiazol-2-yl]-1-bicyclo[1.1.1]pentanyl]imidazo[1,2-a]pyridine-2-carboxamide], under 1000 nM.
Turning to `O=C(CO[C@H]1C[C@@H](OC(F)(F)F)C1)NC12CC(N3CCN(c4ccc(Cl)cc4)C3=O)(C1)C2` [Example 264], the IC50 is under 1000 nM.
In the case of `O=C(COC1CCC1)NC12CC(c3nnc(COc4ccc(Cl)c(F)c4)[nH]3)(C1)C2` [Example 37, N-(3-(5-((4-chloro-3-fluorophenoxy)methyl)-4H-1,2,4-triazol-3-yl)bicyclo[1.1.1]pentan-1-yl)-2-cyclobutoxyacetamide], the IC50 is 1000 to 10000 nM.
As for `CC(N1CC(c2nnc(C34CC(NC(=O)COc5ccc(Cl)c(F)c5)(C3)C4)o2)C1)C(F)(F)F` (centres unmarked) [Example 123, 2-(4-chloro-3-fluoro-phenoxy)-N-[3-[5-[1-(2,2,2-trifluoro-1-methyl-ethyl)azetidin-3-yl]-1,3,4-oxadiazol-2-yl]-1-bicyclo[1.1.1]pentanyl]acetamide], the half-inhibitory concentration (IC50) was under 1000 nM.
On to `O=C(COc1ccc(Cl)c(F)c1)NC12CC(c3nnc(C4C[C@H]4COC(F)(F)F)o3)(C1)C2` (single isomer, unassigned) [Example 82, 2-(4-chloro-3-fluoro-phenoxy)-N-[3-[5-[2-trans-(trifluoromethoxymethyl)cyclopropyl]-1,3,4-oxadiazol-2-yl]-1-bicyclo[1.1.1]pentanyl]acetamide], for which the IC50 was under 1000 nM.
In the case of `O=C(CO[C@H]1C[C@@H](n2nccn2)C1)NC12CC(n3cnc(-c4ccc(Cl)c(F)c4)c3)(C1)C2` [Example 230], the IC50 is under 1000 nM.
Turning to `O=C(COc1ccc(Cl)c(F)c1)NC12CC(c3cnn(C4CCC4)n3)(C1)C2` (single isomer, unassigned) [Example 19, 2-(4-Chloro-3-fluoro-phenoxy)-N-[1-(2-cyclobutyltriazol-4-yl)-3-bicyclo[1.1.1]pentanyl]acetamide], the IC50 is under 1000 nM.
On to `O=C(CO[C@H]1C[C@@H](OC(F)(F)F)C1)NC12CC(c3cnn(-c4ccc(Cl)c(F)c4)n3)(C1)C2` [Example 78, N-[3-[2-(4-chloro-3-fluoro-phenyl)triazol-4-yl]-1-bicyclo[1.1.1]pentanyl]-2-[3-cis-(trifluoromethoxy)cyclobutoxy]acetamide], for which the IC50 is under 1000 nM.
In the case of `O=C(NC12CC(c3nnc([C@H]4C[C@@H](OC(F)(F)F)C4)o3)(C1)C2)C1Cc2cc(Cl)ccc2O1` (stereo partly drawn) [Example 76, 5-chloro-N-[3-[5-[3-cis-(trifluoromethoxy)cyclobutyl]-1,3,4-oxadiazol-2-yl]-1-bicyclo[1.1.1]pentanyl]-2,3-dihydrobenzofuran-2-carboxamide], the IC50 is under 1000 nM.
For `O=C(COc1ccc(Cl)c(F)c1)NC12CC(N3C[C@@H](C4CC(OC(F)(F)F)C4)OC3=O)(C1)C2` (single isomer, unassigned) [Example 208], the IC50 is under 1000 nM.
